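Growth conditions: 96-well plates. Treatment: test compound, 48 hours, 5 concentrations. Analysis: linear interpolation between bracketing concentrations; unreached endpoints set to highest concentration. TGI: concentration producing complete growth inhibition.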

Among the test systems are MCF7 breast; EKVX NSCLC; TK-10 renal; MDA-N; OVCAR-4 ovarian; HOP-62 NSCLC; SW-620 colon; NCI-H23 lung; A549 NSCLC; KM12 colon.
Holding throughout (test): growth of human tumour cells (NCI), 48 h

For `CC(=O)O[C@H]1C(=O)[C@]2(C)[C@@H](OC(=O)OCCC(O)CO)C[C@H]3OC[C@@]3(OC(C)=O)[C@H]2[C@H](OC(=O)c2ccccc2)[C@]2(O)C[C@H](OC(=O)[C@H](O)[C@@H](NC(=O)c3ccccc3)c3ccccc3)C(C)=C1C2(C)C` (stereo partly specified), the TGI in the assay on MCF7 breast is more than 35 µM; in the assay on EKVX NSCLC, more than 100 µM; with TK-10 renal it was more than 61.2 µM; in the assay on MDA-N, less than 0.01 µM; in the assay on OVCAR-4 ovarian, more than 94.3 µM; in the assay on HOP-62 NSCLC, 21.6 µM. Moreover, the results for the TGI with SW-620 colon, in the assay on NCI-H23 lung and in the assay with A549 NSCLC were more than 46.4 µM, 21.7 µM and more than 100 µM, respectively.
Consider `Cc1ccc(SCC(CSCCO)OCn2cnc3c2NC(N)=NC32OCCO2)cc1` (stereo unspecified), for which the TGI in the assay with MCF7 breast, with EKVX NSCLC, with TK-10 renal, with MDA-N, with OVCAR-4 ovarian and with HOP-62 NSCLC was more than 100 µM each time. In addition, the TGI in the assay on SW-620 colon, in the assay on NCI-H23 lung and in the assay with A549 NSCLC was more than 100 µM throughout.
On to `O=c1[nH]cc(N=Cc2cc(Cl)cc(Cl)c2O)c(=O)[nH]1`, for which the TGI in the assay on MCF7 breast was more than 100 µM; in the assay on EKVX NSCLC, more than 100 µM; in the assay on KM12 colon, 85 µM; with TK-10 renal, more than 100 µM; with MDA-N, 93.1 µM; in the assay on OVCAR-4 ovarian, 57.2 µM. The TGI with HOP-62 NSCLC was 57 µM; in the assay on NCI-H23 lung, 75.3 µM; in the assay on A549 NSCLC, more than 100 µM.
Turning to `CC[C@@]1(C[C@H]2C[C@@]3(C(=O)OC)c4[nH]c5ccccc5c4CCN3C2=O)COC2(CCCCC2)O1`, the TGI was 91.4 µM with MCF7 breast; more than 100 µM with EKVX NSCLC; 66.9 µM with KM12 colon; more than 100 µM with TK-10 renal; more than 100 µM with MDA-N; more than 100 µM in the assay with OVCAR-4 ovarian. Besides, the TGI in the assay on HOP-62 NSCLC, with NCI-H23 lung and in the assay on A549 NSCLC was more than 100 µM throughout.
On to `C=C(C1=CC(=O)C(C)(C)O1)[C@@H]1CC=C([C@@H]2CC[C@H]3[C@@]2(C)CC[C@H]2C(C)(C)C(=O)[C@H](O)C[C@]32C)[C@H](O)O1`, for which the TGI turned out to be 1.61 µM in the assay with MCF7 breast; 22.2 µM in the assay with EKVX NSCLC; 20.4 µM with KM12 colon; 2.64 µM in the assay with TK-10 renal; 3.58 µM with MDA-N; 10.3 µM in the assay on OVCAR-4 ovarian. Moreover, the TGI with HOP-62 NSCLC was 8.33 µM; in the assay on NCI-H23 lung, 12.6 µM; with A549 NSCLC, 30.7 µM.
In the case of `Cc1cn(C2CC(n3cc(Cn4cc(I)c(=O)[nH]c4=O)nn3)C(CO)O2)c(=O)[nH]c1=O` (stereo unspecified), the TGI in the assay on MCF7 breast, in the assay with KM12 colon, in the assay on TK-10 renal, with MDA-N, in the assay with OVCAR-4 ovarian and in the assay on HOP-62 NSCLC was more than 100 µM in each case. Further, the TGI in the assay with SW-620 colon, in the assay on NCI-H23 lung and in the assay with A549 NSCLC was more than 100 µM in each case.
Take `CCOC(=O)Nn1c(C)nnc1-c1ccccc1`: the TGI in the assay with MCF7 breast, in the assay with EKVX NSCLC, with KM12 colon, in the assay on TK-10 renal, in the assay on MDA-N and with OVCAR-4 ovarian was more than 100 µM throughout. Further, the TGI with SW-620 colon, with NCI-H23 lung and in the assay on A549 NSCLC was more than 100 µM throughout.
As for `FC(F)(F)c1cc(Cl)cnc1N/N=C(/c1ccccc1)c1ccccn1`, the TGI was 17 µM in the assay with MCF7 breast; 4.97 µM with EKVX NSCLC; 30.1 µM with KM12 colon; more than 100 µM with MDA-N; 29.4 µM in the assay on OVCAR-4 ovarian; 19.7 µM in the assay on HOP-62 NSCLC. For the same compound, the TGI was more than 100 µM in the assay with SW-620 colon, 14.4 µM in the assay with NCI-H23 lung and 22.9 µM with A549 NSCLC.
`C[C@@]12C[C@@H](c3ccccc3O1)N1CCCCSC1=N2`: the TGI with MCF7 breast, in the assay with EKVX NSCLC, in the assay with KM12 colon, with TK-10 renal, in the assay on MDA-N and with OVCAR-4 ovarian was more than 100 µM in each case. For the same compound, the TGI in the assay on HOP-62 NSCLC, in the assay with SW-620 colon and in the assay with NCI-H23 lung was more than 100 µM each time.
Regarding `N=c1n(C(=O)N2CCCC2)c2cc(Cl)ccc2n1C1=NCCN1`, the TGI in the assay on MCF7 breast, in the assay with EKVX NSCLC, in the assay with KM12 colon, with TK-10 renal, with MDA-N and in the assay on OVCAR-4 ovarian was more than 100 µM each time. Further, the TGI with HOP-62 NSCLC, with SW-620 colon and in the assay on A549 NSCLC was more than 100 µM in each case.
Consider `O=[N+]([O-])/C(C(Cl)=C(Cl)Cl)=C(\SCc1ccccc1)N1CCCCC1`, for which the TGI was 32.2 µM in the assay on MCF7 breast; more than 100 µM in the assay on EKVX NSCLC; 87.1 µM in the assay with KM12 colon; more than 100 µM in the assay with TK-10 renal; 50.3 µM in the assay on MDA-N; 51.5 µM in the assay with OVCAR-4 ovarian. Besides, the TGI with HOP-62 NSCLC is more than 100 µM; in the assay with NCI-H23 lung, 42.1 µM; in the assay on A549 NSCLC, more than 100 µM.
In the case of `COC(=O)[C@H]1CO[C@@H](C(C)(C)C)N1C(=O)N1C=CC(=O)C[C@@H]1C`, the TGI in the assay with MCF7 breast, in the assay on EKVX NSCLC, in the assay with KM12 colon, in the assay with TK-10 renal, in the assay with MDA-N and in the assay with HOP-62 NSCLC was more than 100 µM each time. Further, the TGI with SW-620 colon, in the assay on NCI-H23 lung and in the assay with A549 NSCLC was more than 100 µM each time.
As to `Clc1ccc(/C=C/c2nc3ccccc3s2)cc1Cl`, the TGI was more than 100 µM with MCF7 breast; more than 100 µM in the assay with EKVX NSCLC; more than 100 µM in the assay on KM12 colon; more than 100 µM with TK-10 renal; more than 100 µM in the assay on MDA-N; 37.3 µM in the assay on OVCAR-4 ovarian. Moreover, the figures for the TGI in the assay on HOP-62 NSCLC, in the assay on NCI-H23 lung and with A549 NSCLC were 55.8 µM, more than 100 µM and more than 100 µM, respectively.
As to `Cc1cn(C2CC(N(O)C(N)=O)C(CO)O2)c(=O)[nH]c1=O` (stereo unspecified), the TGI in the assay on MCF7 breast, with KM12 colon, with TK-10 renal, in the assay with MDA-N, with OVCAR-4 ovarian and with HOP-62 NSCLC was more than 100 µM in each case. For the same compound, the TGI in the assay with SW-620 colon, with NCI-H23 lung and in the assay on A549 NSCLC was more than 100 µM throughout.

The record behind these values is PubChem BioAssay (NCI).
